Patent US7407988B2, “Carbamic acid compounds comprising a sulfonamide linkage as HDAC inhibitors” (Topotarget UK Limited, priority 2000, dated 2008)
Counter-ions that a name gives are not always drawn. Like-named read-outs stand apart in the source and are kept apart here.

Columns and labels:
HDAC (HeLa cell extract) = assay: Primary assay: deacetylase activity, HeLa cell extract as source of HDAC; type: biochemical, human; conditions: for HDAC Inhibition HeLa, % @ 500: Table 1, @ 500
Text: Briefly, this assay relies on the release of radioactive acetate from a radioactively labelled histone fragment by the action of HDAC enzyme. Test compounds, which inhibit HDAC, reduce the yield of radioactive acetate. Signal (e.g., scintillation counts) measured in the presence and absence of a test compound provide an indication of that compound's ability to inhibit HDAC activity. Decreased activity indicates increased inhibition by the test compound.
The histone fragment was an N-terminal sequence from histone H4, and it was labelled with radioactively labelled acetyl groups using tritiated acetylcoenzyme A (coA) in conjunction with an enzyme which is the histone acetyltransferase domain of the transcriptional coactivator p300. […] The acetylated peptide was then separated from free acetyl coA by size exclusion chromatography on Sephadex G-15 (Sigma G-15-120), using distilled H2O as the mobile phase.
After purification of the radiolabelled histone fragment, it was incubated with a source of HDAC (e.g., an extract of HeLa cells (a rich source of HDAC), recombinantly produced HDAC1 or HDAC2) and any released acetate was extracted into an organic phase and quantitatively determined using scintillation counting. By including a test compound with the source of HDAC, that compound's ability to inhibit the HDAC was determined.
Two cell volumes of extraction buffer were used, and particulate material was centrifuged out (20800 g, 4° C., 10 min). The supernatant extract having deacetylase activity was aliquotted and frozen for storage.
A source of HDAC (e.g., 2 μL of crude HeLa extract, 5 μL of HDAC1 or HDAC2; in elution buffer, as above) was incubated with 3 μL of radioactively labelled peptide along with appropriate dilutions of candidate compounds (1.5 μL) in a total volume of 150 μL of buffer (20 mM Tris pH 7.4, 10% glycerol). The reaction was carried out at 37° C. for one hour, after which the reaction was stopped by adding 20 μL of 1 M HCl/0.4 M sodium acetate. […] Radioactivity was measured using a Tri-Carb 21 00TR Liquid Scintillation Analyzer (Packard).
Percent activity (% activity) for each test compound was calculated as: % activity={(S^C−B)/(S°−B)}×100 wherein S^C denotes signal measured in the presence of enzyme and the compound being tested, S° denotes signal measured in the presence of enzyme but in the absence of the compound being tested, and B denotes the background signal measured in the absence of both enzyme and compound being tested.

HeLa cells = assay: Secondary assay: cell proliferation WST-1, HeLa; type: cell-based; conditions: Homo sapiens, read-out: Cell Proliferation Inhibition WST-1 (IC50 unless otherwise specified) HeLa
[1] = Table 1, read-out: HDAC Inhibition (IC50 unless otherwise specified) HeLa
[2] = comparative tables, HDAC inhibition, read-out: HeLa IC50

melting point	SMILES	HDAC Inhibition HeLa, % @ 500 (HDAC (HeLa cell extract))	further results
132 to 134 °C	O=C(CCCCCNS(=O)(=O)c1cccnc1)NO (as salt: oxalate) [PX117432, 6-(Pyridine-3-sulfonylamino)hexanoic acid hydroxyamide oxalate]		
	O=C(/C=C/c1ccc(NS(=O)(=O)c2ccccc2)cc1)NO [PX106499, 3-(4-Benzenesulfonylaminophenyl)-N-hydroxyacrylamide]		IC50 (HDAC (HeLa cell extract); [1]): 35 nM; IC50 (HDAC (HeLa cell extract); [2]): 35 nM; IC50 (HeLa cells; Table 2, 48 h): 3800 nM
80 to 82 °C	O=C(CCCCCNS(=O)(=O)c1ccccc1)NO [PX106522, 6-Benzenesulfonylaminohexanoic acid hydroxyamide]		IC50 (HDAC (HeLa cell extract); [1]): 1580 nM; IC50 (HDAC (HeLa cell extract); [2]): 1600 nM; IC50 (HeLa cells; Table 2, 48 h): 16700 nM
88 to 90 °C	O=C(/C=C/C#Cc1cccc(S(=O)(=O)Nc2ccccc2)c1)NO [PX116238, (E)-5-(3-Phenylsulfamoylphenyl)pent-2-en-4-ynoic acid hydroxyamide]		IC50 (HDAC (HeLa cell extract); [1]): 14 nM; IC50 (HDAC (HeLa cell extract); [2]): 14 nM; IC50 (HeLa cells; Table 2, 48 h): 800 nM
128 to 129 °C	O=C(CCCCS(=O)(=O)Nc1ccccc1)NO [PX117233, 5-(Anilinosulfonyl)-N-hydroxypentanamide]	21% @ 500	
97 to 98 °C	O=C(CCCCCS(=O)(=O)Nc1ccccc1)NO [PX117234, 6-(Anilinosulfonyl)-N-hydroxyhexanamide]	59% @ 500	HeLa, % @ 500 nM (HDAC (HeLa cell extract); comparative tables): 59% @ 500 nM
163 to 164 °C	O=C(CCCCS(=O)(=O)Nc1ccc2ccccc2c1)NO [PX117235, N-Hydroxy-5-[(2-naphthylamino)sulfonyl]pentanamide]	40% @ 500	
94 to 95 °C	O=C(CCCCCCS(=O)(=O)Nc1ccccc1)NO [PX117236]	54% @ 500	
69 to 70 °C	CN(c1ccccc1)S(=O)(=O)CCCCCCC(=O)NO [PX117260, N-Hydroxy-7-[(methylanilino)sulfonyl]heptanamide]	35% @ 500	
121 to 122 °C	CN(c1ccccc1)S(=O)(=O)CCCCCC(=O)NO [PX117410, N-Hydroxy-6-[(methylanilino)sulfonyl]hexanamide]	40% @ 500	
65.5 to 66.5 °C	CN(c1ccccc1)S(=O)(=O)CCCCCCCC(=O)NO [PX117411, N-Hydroxy-8-[(methylanilino)sulfonyl]octanamide]	39% @ 500	
119 to 119.5 °C	O=C(CCCCCCCS(=O)(=O)N(Cc1ccccc1)c1ccccc1)NO [PX117412, 8-[(Benzylanilino)sulfonyl]-N-hydroxyoctanamide]	54% @ 500	
129 to 129.5 °C	O=C(CCCCCS(=O)(=O)N(Cc1ccccc1)c1ccccc1)NO [PX117414, 6-[(Benzylanilino)sulfonyl]-N-hydroxyhexanamide]	46% @ 500	
107 to 109 °C	O=C(CCCCCNS(=O)(=O)/C=C/c1ccccc1)NO [PX117429, 6-(2-Phenylethenesulfonylamino)hexanoic acid hydroxyamide]	73% @ 500	
	O=C(CCCCCNS(=O)(=O)c1cccnc1)NO [PX117432, 6-(Pyridine-3-sulfonylamino)hexanoic acid hydroxyamide oxalate]	24% @ 500	

SMILES	melting point	HDAC Inhibition HeLa, % @ 500 (HDAC (HeLa cell extract))	further results
O=C(/C=C/c1ccccc1S(=O)(=O)Nc1ccccc1)NO [PX116242, N-Hydroxy-3-(2-phenylsulfamoylphenyl)acrylamide]	205 to 206.5 °C	9% @ 500	HeLa, % @ 500 nM (HDAC (HeLa cell extract); comparative tables): 9% @ 500 nM
O=C(/C=C/c1ccccc1S(=O)(=O)Nc1cccc2ccccc12)NO [PX117447, N-Hydroxy-3-[2-(naphthalen-1-ylsulfamoyl)-phenyl]-acrylamide]	186 to 187 °C	3% @ 500	HeLa, % @ 500 nM (HDAC (HeLa cell extract); comparative tables): 3% @ 500 nM; IC50 (HeLa cells; 48 h): 77800 nM
